Test results reported in patent US12448395B2 (BRISTOL-MYERS SQUIBB COMPANY, priority 2019, dated 2025).

Biological target: T1, human TLR9 (Homo sapiens, UniProt Q9NR96)
T1 sequence (Q9NR96 26-1032): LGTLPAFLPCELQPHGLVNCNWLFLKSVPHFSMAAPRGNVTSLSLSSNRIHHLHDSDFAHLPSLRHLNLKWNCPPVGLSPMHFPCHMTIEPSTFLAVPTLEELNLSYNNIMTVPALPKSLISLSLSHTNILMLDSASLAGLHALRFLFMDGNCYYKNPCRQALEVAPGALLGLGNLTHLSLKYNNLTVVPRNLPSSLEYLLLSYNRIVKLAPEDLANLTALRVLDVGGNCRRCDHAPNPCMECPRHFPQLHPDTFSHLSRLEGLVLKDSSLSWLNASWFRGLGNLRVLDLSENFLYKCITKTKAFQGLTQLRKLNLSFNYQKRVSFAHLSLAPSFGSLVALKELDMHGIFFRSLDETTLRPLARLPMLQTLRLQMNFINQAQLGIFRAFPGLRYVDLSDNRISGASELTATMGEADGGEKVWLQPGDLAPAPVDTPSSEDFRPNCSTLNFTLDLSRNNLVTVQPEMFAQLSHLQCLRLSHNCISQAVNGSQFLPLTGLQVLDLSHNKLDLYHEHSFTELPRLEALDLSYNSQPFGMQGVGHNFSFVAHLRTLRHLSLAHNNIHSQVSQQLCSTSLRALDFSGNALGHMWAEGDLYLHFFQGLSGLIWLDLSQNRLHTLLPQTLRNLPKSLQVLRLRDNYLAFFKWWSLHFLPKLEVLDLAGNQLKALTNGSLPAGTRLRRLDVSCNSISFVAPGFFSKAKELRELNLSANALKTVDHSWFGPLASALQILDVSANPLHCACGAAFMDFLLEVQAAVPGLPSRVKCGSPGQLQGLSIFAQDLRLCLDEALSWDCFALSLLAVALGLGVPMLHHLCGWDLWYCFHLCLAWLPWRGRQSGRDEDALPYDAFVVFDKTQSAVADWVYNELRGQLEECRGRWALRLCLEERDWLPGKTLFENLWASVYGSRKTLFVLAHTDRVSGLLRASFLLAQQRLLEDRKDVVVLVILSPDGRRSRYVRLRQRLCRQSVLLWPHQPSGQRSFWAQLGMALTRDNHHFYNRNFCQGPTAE
Experiment: TLR9 inhibition reporter assay (HEK-Blue SEAP, ODN2006 stimulation)
Assay type: cell-based
Conditions: HEK-Blue cells overexpressing human TLR9, ODN2006 5 nM
Procedure: TLR7/8/9 Inhibition Reporter Assays
HEK-Blue™-cells (Invivogen) overexpressing human TLR7, TLR8 or TLR9 receptors were used for screening inhibitors of these receptors using an inducible SEAP (secreted embryonic alkaline phosphatase) reporter gene under the control of the IFN-β minimal promoter fused to five NF-κB and AP-1-binding sites. Briefly, cells are seeded into Greiner 384 well plates (15000 cells per well for TLR7, 20,000 for TLR8 and 25,000 for TLR9) and then treated with test compounds in DMSO to yield a final dose response concentration range of 0.05 nM-50 μM. After a 30 minute compound pre-treatment at room temperature, the cells are then stimulated with a TLR7 ligand (gardiquimod at a final concentration of 7.5 μM), TLR8 ligand (R848 at a final concentration of 15.9 μM) or TLR9 ligand (ODN2006 at a final concentration of 5 nM) to activate NF-κB and AP-1 which induce the production of SEAP. After a 22 hour incubation at 37° C., 5% CO2, SEAP levels are determined with the addition of HEK-Blue™ Detection reagent (Invivogen), a cell culture medium that allows for detection of SEAP, according to manufacturer's specifications. The percent inhibition is determined as the % reduction in the HEK-Blue signal present in wells treated with agonist plus DMSO alone compared to wells treated with a known inhibitor.

Compound | IC50 [µM]
CNC(=O)CN1CCN(c2nc3c(C(C)C)c(-c4cn5ncnc5c(C)c4C)[nH]c3s2)[C@@H](C)C1 [Example 342, (S)-2-(4-(5-(7,8-dimethyl-[1,2,4]triazolo[1,5-a]pyridin-6-yl)-6-isopropyl-4H-pyrrolo[3,2-d]thiazol-2-yl)-3-methylpiperazin-1-yl)-N-methylacetamide] | > 50
Cc1c(-c2[nH]c3sc(N4CCN(CC(=O)N(C)C)C[C@H]4C)nc3c2C(C)C)cn2ncnc2c1C [Example 312, (R)-2-(4-(5-(7,8-dimethyl-[1,2,4]triazolo[1,5-a]pyridin-6-yl)-6-isopropyl-4H-pyrrolo[3,2-d]thiazol-2-yl)-3-methylpiperazin-1-yl)-N,N-dimethylacetamide] | > 50
CC(=O)N1CCC(c2nc3c(C(C)C)c(-c4cn5ncnc5c(C)c4C)[nH]c3s2)CC1 [Example 59, 1-(4-(5-(7,8-dimethyl-[1,2,4]triazolo[1,5-a]pyridin-6-yl)-6-isopropyl-4H-pyrrolo[3,2-d]thiazol-2-yl)piperidin-1-yl)ethan-1-one] | > 50
Cc1c(-c2[nH]c3sc(N4CC5(C4)CN(C4COC4)C5)nc3c2C(C)C)cn2ncnc2c1C [Example 302, 5-(7,8-dimethyl-[1,2,4]triazolo[1,5-a]pyridin-6-yl)-6-isopropyl-2-(6-(oxetan-3-yl)-2,6-diazaspiro[3.3]heptan-2-yl)-4H-pyrrolo[3,2-d]thiazole] | > 50
Cc1c(-c2[nH]c3sc(CN4CC5(C4)CS(=O)(=O)C5)nc3c2C(C)C)cn2ncnc2c1C [Example 403, 6-((5-(7,8-dimethyl-[1,2,4]triazolo[1,5-a]pyridin-6-yl)-6-isopropyl-4H-pyrrolo[3,2-d]thiazol-2-yl)methyl)-2-thia-6-azaspiro[3.3]heptane 2,2-dioxide] | > 50
Cc1c(-c2[nH]c3sc(C4CCN(CCS(C)(=O)=O)CC4)nc3c2C(C)C)cn(C)c(=O)c1C [Example 61, 5-(6-isopropyl-2-(1-(2-(methylsulfonyl)ethyl)piperidin-4-yl)-4H-pyrrolo[3,2-d]thiazol-5-yl)-1,3,4-trimethylpyridin-2 (1H)-one] | > 50
Cc1c(-c2[nH]c3sc(C4CCN(CC(N)=O)CC4)nc3c2C(C)C)cn(C)c(=O)c1C [Example 64, 2-(4-(6-isopropyl-5-(1,4,5-trimethyl-6-oxo-1,6-dihydropyridin-3-yl)-4H-pyrrolo[3,2-d]thiazol-2-yl)piperidin-1-yl)acetamide] | > 50
CC(C)c1c(-c2cn(C)c3ncccc23)[nH]c2sc(C3CCN(CCS(C)(=O)=O)CC3)nc12 [Example 33, 6-isopropyl-5-(1-methyl-1H-pyrrolo[2,3-b]pyridin-3-yl)-2-(1-(2-(methylsulfonyl)ethyl)piperidin-4-yl)-4H-pyrrolo[3,2-d]thiazole] | > 50
Cc1c(-c2[nH]c3sc(N4CCN(CC(=O)N(C)C)CC4)nc3c2C(C)C)cn2ncnc2c1C [Example 283, 2-(4-(5-(7,8-dimethyl-[1,2,4]triazolo[1,5-a]pyridin-6-yl)-6-isopropyl-4H-pyrrolo[3,2-d]thiazol-2-yl)piperazin-1-yl)-N,N-dimethylacetamide] | > 50
CNC(=O)CN1CCN(c2nc3c(C(C)C)c(-c4cn5ncnc5c(C)c4C)[nH]c3s2)CC1 [Example 284, 2-(4-(5-(7,8-dimethyl-[1,2,4]triazolo[1,5-a]pyridin-6-yl)-6-isopropyl-4H-pyrrolo[3,2-d]thiazol-2-yl)piperazin-1-yl)-N-methylacetamide] | > 50
Cc1c(-c2[nH]c3sc(N4CCN(CC(=O)N(C)C)C[C@@H]4C)nc3c2C(C)C)cn2ncnc2c1C [Example 343, (S)-2-(4-(5-(7,8-dimethyl-[1,2,4]triazolo[1,5-a]pyridin-6-yl)-6-isopropyl-4H-pyrrolo[3,2-d]thiazol-2-yl)-3-methylpiperazin-1-yl)-N,N-dimethylacetamide] | > 50

Next, values leading:

IC50 [µM] | Compound
> 50 | Cc1c(-c2[nH]c3sc(N4CCN(CCS(C)(=O)=O)C[C@@H]4C)nc3c2C(C)C)cn2ncnc2c1C [Example 344, (S)-5-(7,8-dimethyl-[1,2,4]triazolo[1,5-a]pyridin-6-yl)-6-isopropyl-2-(2-methyl-4-(2-(methylsulfonyl)ethyl)piperazin-1-yl)-4H-pyrrolo[3,2-d]thiazole]
> 50 | Cc1c(-c2[nH]c3sc(CN4CC5(COC5)C4)nc3c2C(C)C)cn2ncnc2c1C [Example 408, 6-((5-(7,8-dimethyl-[1,2,4]triazolo[1,5-a]pyridin-6-yl)-6-isopropyl-4H-pyrrolo[3,2-d]thiazol-2-yl)methyl)-2-oxa-6-azaspiro[3.3]heptane]
> 50 | Cc1c(-c2[nH]c3sc(C(=O)N4CCNC(=O)C4)nc3c2C(C)C)cn2ncnc2c1C [Example 378, 4-(5-(7,8-dimethyl-[1,2,4]triazolo[1,5-a]pyridin-6-yl)-6-isopropyl-4H-pyrrolo[3,2-d]thiazole-2-carbonyl)piperazin-2-one]
> 50 | COc1cc(-c2[nH]c3sc(C(=O)NCC(F)(F)F)nc3c2C(C)C)cn2ncnc12 [Example 390, 6-isopropyl-5-(8-methoxy-[1,2,4]triazolo[1,5-a]pyridin-6-yl)-N-(2,2,2-trifluoroethyl)-4H-pyrrolo[3,2-d]thiazole-2-carboxamide]
> 50 | Cc1c(-c2[nH]c3sc(C(=O)N4CCCC4)nc3c2C(C)C)cn2ncnc2c1C [Example 377, (5-(7,8-dimethyl-[1,2,4]triazolo[1,5-a]pyridin-6-yl)-6-isopropyl-4H-pyrrolo[3,2-d]thiazol-2-yl)(pyrrolidin-1-yl)methanone]
> 50 | Cc1cc(-c2[nH]c3sc(C(=O)N4CCCC4)nc3c2C(C)C)cn2ncnc12 [Example 393, (6-isopropyl-5-(8-methyl-[1,2,4]triazolo[1,5-a]pyridin-6-yl)-4H-pyrrolo[3,2-d]thiazol-2-yl)(pyrrolidin-1-yl) methanone]
> 50 | Cc1c(-c2[nH]c3sc(C(=O)N4CCN(S(C)(=O)=O)CC4)nc3c2C(C)C)cn2ncnc2c1C [Example 384, (5-(7,8-dimethyl-[1,2,4]triazolo[1,5-a]pyridin-6-yl)-6-isopropyl-4H-pyrrolo[3,2-d]thiazol-2-yl)(4-(methylsulfonyl)piperazin-1-yl) methanone]
> 50 | Cc1cc(-c2[nH]c3sc(C(=O)NCC4(S(C)(=O)=O)CC4)nc3c2C(C)C)cn2ncnc12 [Example 399, 6-isopropyl-5-(8-methyl-[1,2,4]triazolo[1,5-a]pyridin-6-yl)-N-((1-(methylsulfonyl)cyclopropyl)methyl)-4H-pyrrolo[3,2-d]thiazole-2-carboxamide]
> 50 | Cc1cc(-c2[nH]c3sc(C(=O)N4CCNC(=O)C4)nc3c2C(C)C)cn2ncnc12 [Example 392, 4-(6-isopropyl-5-(8-methyl-[1,2,4]triazolo[1,5-a]pyridin-6-yl)-4H-pyrrolo[3,2-d]thiazole-2-carbonyl)piperazin-2-one]
> 50 | Cc1c(-c2[nH]c3sc(CN4CC5(CCOCC5)C4)nc3c2C(C)C)cn2ncnc2c1C [Example 404, 2-((5-(7,8-dimethyl-[1,2,4]triazolo[1,5-a]pyridin-6-yl)-6-isopropyl-4H-pyrrolo[3,2-d]thiazol-2-yl)methyl)-7-oxa-2-azaspiro[3.5]nonane]
> 50 | Cc1cc(-c2[nH]c3sc(C(N)=O)nc3c2C(C)C)cn2ncnc12 [Example 391, 6-isopropyl-5-(8-methyl-[1,2,4]triazolo[1,5-a]pyridin-6-yl)-4H-pyrrolo[3,2-d]thiazole-2-carboxamide]
